Source: patent publication US11440899B2, “Pyrimidine TBK/IKKe inhibitor compounds and uses thereof” (Merck Patent GmbH, priority 2017, dated 2022)
Counter-ions that a name gives are not always drawn. One block for each molecule: values may come before it.

What was measured:
[1] = biological target: IKKe (Homo sapiens (Human), UniProt Q14164); assay: IKKe Biochemical Assay
Procedure, shortened: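 Human IKKε activity was measured with compounds in a 10-point 1:4 dilution series, top concentration 30 uM final, in 1% DMSO final; 10 uM staurosporine served as the control. Enzyme and substrate were incubated 90 min at 25° C, then stopped, and substrate/product peaks were separated by microfluidic mobility-shift on a LabChip EZ Reader II.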

[2] = biological target: TBK1 (Homo sapiens (Human), UniProt Q9UHD2); assay: TBK Biochemical Assay
Chain of TBK1 (Q9UHD2 whole entry, species assumed): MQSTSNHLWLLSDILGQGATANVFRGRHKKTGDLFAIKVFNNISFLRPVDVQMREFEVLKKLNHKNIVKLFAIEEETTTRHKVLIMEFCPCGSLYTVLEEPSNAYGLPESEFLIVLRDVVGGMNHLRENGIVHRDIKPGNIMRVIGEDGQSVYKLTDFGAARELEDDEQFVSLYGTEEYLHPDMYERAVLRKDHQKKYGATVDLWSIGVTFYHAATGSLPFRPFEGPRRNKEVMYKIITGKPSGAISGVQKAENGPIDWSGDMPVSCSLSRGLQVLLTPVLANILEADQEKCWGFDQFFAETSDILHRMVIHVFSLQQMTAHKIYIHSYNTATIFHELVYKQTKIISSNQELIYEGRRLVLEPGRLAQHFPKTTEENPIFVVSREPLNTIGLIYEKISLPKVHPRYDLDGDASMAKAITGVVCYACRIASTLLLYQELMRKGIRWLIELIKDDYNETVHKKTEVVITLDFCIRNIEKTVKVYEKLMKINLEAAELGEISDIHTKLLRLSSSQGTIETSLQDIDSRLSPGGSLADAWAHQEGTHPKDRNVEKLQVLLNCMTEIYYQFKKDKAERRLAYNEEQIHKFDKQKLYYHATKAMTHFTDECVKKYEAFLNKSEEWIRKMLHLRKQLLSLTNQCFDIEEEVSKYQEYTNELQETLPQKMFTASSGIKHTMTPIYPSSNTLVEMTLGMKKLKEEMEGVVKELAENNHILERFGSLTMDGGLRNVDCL
Procedure, shortened: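 Enzyme and substrate with compound (10-point 1:4 series, top 30 uM final, 1% DMSO) incubated 90 min at 25 °C, then stopped; substrate/product separated and read by LabChip mobility-shift, staurosporine 10 uM final as full-inhibition control.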

Chain of IKKe (Q14164 whole entry, species assumed): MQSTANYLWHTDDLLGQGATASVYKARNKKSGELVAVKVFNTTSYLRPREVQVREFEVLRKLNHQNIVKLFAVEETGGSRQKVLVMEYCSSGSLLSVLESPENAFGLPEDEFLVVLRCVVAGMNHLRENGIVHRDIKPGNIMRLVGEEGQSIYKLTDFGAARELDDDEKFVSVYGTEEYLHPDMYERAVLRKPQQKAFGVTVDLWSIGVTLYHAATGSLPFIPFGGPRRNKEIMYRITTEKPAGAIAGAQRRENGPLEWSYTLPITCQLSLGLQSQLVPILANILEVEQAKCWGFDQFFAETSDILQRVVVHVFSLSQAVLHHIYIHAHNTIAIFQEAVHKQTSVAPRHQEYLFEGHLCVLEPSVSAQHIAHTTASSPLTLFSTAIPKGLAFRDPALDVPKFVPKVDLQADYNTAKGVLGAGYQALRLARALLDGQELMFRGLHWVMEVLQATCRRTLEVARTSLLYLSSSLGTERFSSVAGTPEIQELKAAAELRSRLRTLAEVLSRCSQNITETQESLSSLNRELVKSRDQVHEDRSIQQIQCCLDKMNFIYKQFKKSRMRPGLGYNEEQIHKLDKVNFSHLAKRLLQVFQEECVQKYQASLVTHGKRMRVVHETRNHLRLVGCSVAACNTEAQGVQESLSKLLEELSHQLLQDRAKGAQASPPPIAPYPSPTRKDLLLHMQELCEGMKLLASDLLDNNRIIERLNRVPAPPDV

Compound: COc1nc(Nc2cc(-c3ccc(OC4CCN(C(=O)[C@@H](C)O)CC4(F)F)c(C#N)c3)ncn2)ccc1N1CCN(C2COC2)CC1 (stereo partly drawn) [Example 77, 2-([3,3-difluoro-1-[(2R)-2-hydroxypropanoyl]piperidin-4-yl]oxy)-5-[6-([6-methoxy-5-[4-(oxetan-3-yl)piperazin-1-yl]pyridin-2-yl]amino)pyrimidin-4-yl]benzonitrile]
IC50 [1]: < 100 nM
IC50 [2]: < 100 nM

Compound: COc1nc(Nc2cc(-c3ccc(OC4CCN(C(=O)[C@H](C)O)CC4(F)F)c(C#N)c3)ncn2)ccc1N1CCN(C2COC2)CC1 (stereo partly drawn) [Example 78, 2-([3,3-difluoro-1-[(2S)-2-hydroxypropanoyl]piperidin-4-yl]oxy)-5-[6-([6-methoxy-5-[4-(oxetan-3-yl)piperazin-1-yl]pyridin-2-yl]amino)pyrimidin-4-yl]benzonitrile]
IC50 [1]: < 100 nM
IC50 [2]: < 100 nM

Compound: COc1nc(Nc2cc(-c3ccc(O[C@H]4CCN(C(=O)c5cnn[nH]5)C[C@H]4F)c(C#N)c3)ncn2)ccc1N1CCN(C2COC2)CC1 [Example 79, 2-[[(3R,4S)-3-fluoro-1-[(1H-1,2,3-triazol-5-yl)carbonyl]piperidin-4-yl]oxy]-5-[6-([6-methoxy-5-[4-(oxetan-3-yl)piperazin-1-yl]pyridin-2-yl]amino)pyrimidin-4-yl]benzonitrile]
IC50 [1]: < 100 nM
IC50 [2]: < 100 nM

Compound: COc1nc(Nc2cc(-c3ccc(OC4CCNCC4(F)F)c(C#N)c3)ncn2)ccc1N1CCN(C)[C@@H](C)C1 (stereo partly drawn) [Example 80, 2-[(3,3-difluoropiperidin-4-yl)oxy]-5-[6-({5-[(3S)-3,4-dimethylpiperazin-1-yl]-6-methoxypyridin-2-yl}amino)pyrimidin-4-yl]benzonitrile]
IC50 [1]: < 100 nM
IC50 [2]: < 100 nM

Compound: COc1nc(Nc2cc(-c3ccc(OC4CCN(C(=O)[C@@H](C)O)CC4(F)F)c(C#N)c3)ncn2)ccc1N1CCN(C)[C@@H](C)C1 (stereo partly drawn) [Example 81, 2-([3,3-difluoro-1-[(2R)-2-hydroxypropanoyl]piperidin-4-yl]oxy)-5-[6-([5-[(3S)-3,4-dimethylpiperazin-1-yl]-6-methoxypyridin-2-yl]amino)pyrimidin-4-yl]benzonitrile]
IC50 [1]: < 100 nM
IC50 [2]: < 100 nM

Compound: COc1nc(Nc2cc(-c3ccc(OC4CCN(C(=O)[C@H](C)O)CC4(F)F)c(C#N)c3)ncn2)ccc1N1CCN(C)[C@@H](C)C1 (stereo partly drawn) [Example 82, 2-([3,3-difluoro-1-[(2S)-2-hydroxypropanoyl]piperidin-4-yl]oxy)-5-[6-([5-[(3S)-3,4-dimethylpiperazin-1-yl]-6-methoxypyridin-2-yl]amino)pyrimidin-4-yl]benzonitrile]
IC50 [1]: < 100 nM
IC50 [2]: < 100 nM

Compound: COc1nc(Nc2cc(-c3ccc(OC4CCNCC4(F)F)c(C#N)c3)ncn2)ccc1C1CCN(C2COC2)CC1 (stereo not drawn) [Example 83]
IC50 [1]: < 100 nM
IC50 [2]: < 100 nM

Compound: COc1nc(Nc2cc(-c3ccc(OC4CCN(C(=O)[C@H](C)O)CC4(F)F)c(C#N)c3)ncn2)ccc1C1CCN(C2COC2)CC1 (stereo partly drawn) [Example 84, 2-([3,3-difluoro-1-[(2S)-2-hydroxypropanoyl]piperidin-4-yl]oxy)-5-[6-([6-methoxy-5-[1-(oxetan-3-yl)piperidin-4-yl]pyridin-2-yl]amino)pyrimidin-4-yl]benzonitrile]
IC50 [1]: < 100 nM
IC50 [2]: < 100 nM

Compound: C[C@H](O)C(=O)N1CCC(Oc2ccc(-c3cc(Nc4ccc(N5CCN(C6COC6)CC5)cc4)ncn3)cc2C#N)C(F)(F)C1 (stereo partly drawn) [Example 85, 2-([3,3-difluoro-1-[(2S)-2-hydroxypropanoyl]piperidin-4-yl]oxy)-5-[6-([4-[4-(oxetan-3-yl)piperazin-1-yl]phenyl]amino)pyrimidin-4-yl]benzonitrile]
IC50 [1]: < 100 nM
IC50 [2]: < 100 nM

Compound: C[C@@H](O)C(=O)N1CCC(Oc2ccc(-c3cc(Nc4ccc(N5CCN(C6COC6)CC5)cc4)ncn3)cc2C#N)C(F)(F)C1 (stereo partly drawn) [Example 86, 2-([3,3-difluoro-1-[(2R)-2-hydroxypropanoyl]piperidin-4-yl]oxy)-5-[6-([4-[4-(oxetan-3-yl)piperazin-1-yl]phenyl]amino)pyrimidin-4-yl]benzonitrile]
IC50 [1]: 100 to 1000 nM
IC50 [2]: < 100 nM

Compound: COc1nc(Nc2cc(-c3ccc(NC4CCOCC4)c(C#N)c3)ncn2)ccc1C(=O)N(C)C [Example 87, 6-[(6-[3-cyano-4-[(oxan-4-yl)amino]phenyl]pyrimidin-4-yl)amino]-2-methoxy-N,N-dimethylpyridine-3-carboxamide]
IC50 [1]: 100 to 1000 nM
IC50 [2]: < 100 nM

Compound: COc1nc(Nc2cc(-c3ccc(OC4CCOCC4)c(C#N)c3)ncn2)ccc1C(=O)NCCO [Example 88, 6-([6-[3-cyano-4-(oxan-4-yloxy)phenyl]pyrimidin-4-yl]amino)-N-(2-hydroxyethyl)-2-methoxypyridine-3-carboxamide]
IC50 [1]: < 100 nM
IC50 [2]: < 100 nM

Compound: COc1nc(Nc2cc(-c3ccc(OC4CCOCC4)c(C#N)c3)ncn2)ccc1C(=O)NC1CN2CCC1CC2 (stereo not drawn) [Example 89, 6-((6-(3-cyano-4-((tetrahydro-2H-pyran-4-yl)oxy)phenyl)pyrimidin-4-yl)amino)-2-methoxy-N-(quinuclidin-3-yl)nicotinamide]
IC50 [1]: < 100 nM
IC50 [2]: < 100 nM

Compound: COc1nc(Nc2cc(-c3ccc(OC4CCOCC4)c(C#N)c3)ncn2)ccc1C(=O)N1C2CCCC1COC2 [Example 90, 5-(6-[[6-methoxy-5-([3-oxa-9-azabicyclo[3.3.1]nonan-9-yl]carbonyl)pyridin-2-yl]amino]pyrimidin-4-yl)-2-(oxan-4-yloxy)benzonitrile]
IC50 [1]: < 100 nM
IC50 [2]: < 100 nM

Compound: COc1nc(Nc2cc(-c3ccc(O[C@H]4CCN(C(=O)[C@H](C)O)CC4(F)F)c(C#N)c3)ncn2)ccc1N1CCN(C2COC2)CC1 [Example 91, 2-[[(4S)-3,3-difluoro-1-[(2S)-2-hydroxypropanoyl]piperidin-4-yl]oxy]-5-[6-([6-methoxy-5-[4-(oxetan-3-yl)piperazin-1-yl]pyridin-2-yl]amino)pyrimidin-4-yl]benzonitrile]
IC50 [1]: < 100 nM
IC50 [2]: < 100 nM

Compound: COc1nc(Nc2cc(-c3ccc(O[C@@H]4CCN(C(=O)[C@H](C)O)CC4(F)F)c(C#N)c3)ncn2)ccc1N1CCN(C2COC2)CC1 [Example 92, 2-[[(4R)-3,3-difluoro-1-[(2S)-2-hydroxypropanoyl]piperidin-4-yl]oxy]-5-[6-([6-methoxy-5-[4-(oxetan-3-yl)piperazin-1-yl]pyridin-2-yl]amino)pyrimidin-4-yl]benzonitrile]
IC50 [1]: < 100 nM
IC50 [2]: < 100 nM

Next, values leading:

IC50 [1]: < 100 nM
IC50 [2]: < 100 nM
Compound: COc1nc(Nc2cc(-c3ccc(OC4CCNCC4(F)F)c(C#N)c3)ncn2)ccc1N1CCN(C2COC2)C[C@H]1C (stereo partly drawn) [Example 69, 2-[(3,3-difluoropiperidin-4-yl)oxy]-5-[6-({6-methoxy-5-[(2R)-2-methyl-4-(oxetan-3-yl)piperazin-1-yl]pyridin-2-yl}amino)pyrimidin-4-yl]benzonitrile]

IC50 [1]: < 100 nM
IC50 [2]: < 100 nM
Compound: COc1nc(Nc2cc(-c3ccc(OC4CCN(C(=O)[C@@H](C)O)CC4(F)F)c(C#N)c3)ncn2)ccc1N1CCN(C2COC2)C[C@H]1C (stereo partly drawn) [Example 70, 2-([3,3-difluoro-1-[(2R)-2-hydroxypropanoyl]piperidin-4-yl]oxy)-5-[6-([6-methoxy-5-[(2R)-2-methyl-4-(oxetan-3-yl)piperazin-1-yl]pyridin-2-yl]amino)pyrimidin-4-yl]benzonitrile]

IC50 [1]: < 100 nM
IC50 [2]: < 100 nM
Compound: COc1nc(Nc2cc(-c3ccc(OC4CCN(C(=O)[C@H](C)O)CC4(F)F)c(C#N)c3)ncn2)ccc1N1CCN(C2COC2)C[C@H]1C (stereo partly drawn) [Example 71, 2-([3,3-difluoro-1-[(2S)-2-hydroxypropanoyl]piperidin-4-yl]oxy)-5-[6-([6-methoxy-5-[(2R)-2-methyl-4-(oxetan-3-yl)piperazin-1-yl]pyridin-2-yl]amino)pyrimidin-4-yl]benzonitrile]

IC50 [1]: < 100 nM
IC50 [2]: < 100 nM
Compound: COc1nc(Nc2cc(-c3ccc(OC4CCN(C(=O)[C@H](C)O)CC4(F)F)c(C#N)c3)ncn2)ccc1N1CCN(C2COC2)C[C@@H]1C (stereo partly drawn) [Example 72, 2-([3,3-difluoro-1-[(2S)-2-hydroxypropanoyl]piperidin-4-yl]oxy)-5-[6-([6-methoxy-5-[(2S)-2-methyl-4-(oxetan-3-yl)piperazin-1-yl]pyridin-2-yl]amino)pyrimidin-4-yl]benzonitrile]

IC50 [1]: < 100 nM
IC50 [2]: < 100 nM
Compound: COc1nc(Nc2cc(-c3ccc(OC4CCNCC4(F)F)c(C#N)c3)ncn2)ccc1N1CCN(C)[C@H](C)C1 (stereo partly drawn) [Example 73, 2-[(3,3-difluoropiperidin-4-yl)oxy]-5-[6-({5-[(3R)-3,4-dimethylpiperazin-1-yl]-6-methoxypyridin-2-yl}amino)pyrimidin-4-yl]benzonitrile]

IC50 [1]: < 100 nM
IC50 [2]: < 100 nM
Compound: COc1nc(Nc2cc(-c3ccc(OC4CCN(C(=O)[C@H](C)O)CC4(F)F)c(C#N)c3)ncn2)ccc1N1CCN(C)[C@H](C)C1 (stereo partly drawn) [Example 74, 2-([3,3-difluoro-1-[(2S)-2-hydroxypropanoyl]piperidin-4-yl]oxy)-5-[6-([5-[(3R)-3,4-dimethylpiperazin-1-yl]-6-methoxypyridin-2-yl]amino)pyrimidin-4-yl]benzonitrile hydrochloride]

IC50 [1]: < 100 nM
IC50 [2]: < 100 nM
Compound: COc1nc(Nc2cc(-c3ccc(OC4CCN(C(=O)[C@@H](C)O)CC4(F)F)c(C#N)c3)ncn2)ccc1N1CCN(C)[C@H](C)C1 (stereo partly drawn) [Example 75, 2-([3,3-difluoro-1-[(2R)-2-hydroxypropanoyl]piperidin-4-yl]oxy)-5-[6-([5-[(3R)-3,4-dimethylpiperazin-1-yl]-6-methoxypyridin-2-yl]amino)pyrimidin-4-yl]benzonitrile hydrochloride]

IC50 [1]: < 100 nM
IC50 [2]: < 100 nM
Compound: COc1nc(Nc2cc(-c3ccc(OC4CCNCC4(F)F)c(C#N)c3)ncn2)ccc1N1CCN(C2COC2)CC1 (stereo not drawn) [Example 76, 2-[(3,3-difluoropiperidin-4-yl)oxy]-5-[6-({6-methoxy-5-[4-(oxetan-3-yl)piperazin-1-yl]pyridin-2-yl}amino)pyrimidin-4-yl]benzonitrile]
